# Assays:
# in vitro [1] = conditions: male, Sprague-Dawley, rat; for Concentration (μM) of analyte PEA, 0 min / Concentration (μM) of analyte PEA, 10 min / Concentration (μM) of analyte PEA, 20 min / Concentration (μM) of analyte PEA, 30 min / Concentration (μM) of analyte PEA, 60 min / % Remaining of Initial (n = 1), 0 min / % Remaining of Initial (n = 1), 10 min / % Remaining of Initial (n = 1), 20 min / % Remaining of Initial (n = 1), 30 min / % Remaining of Initial (n = 1), 60 min: 1 μM; for % Remaining of Initial (n = 1), 0 min: s9, 0 h; for % Remaining of Initial (n = 1), 10 min: s9, 10 min; for % Remaining of Initial (n = 1), 20 min: s9, 20 min; for % Remaining of Initial (n = 1), 30 min: s9, 0.5 h; for % Remaining of Initial (n = 1), 60 min: s9, 1 h; for microsomal CLint at 1 μM: s9, CLint (mL/min/mg protein); for half-life at 1 μM: s9, Half-life (min)
# In short: (§1)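 LC-MS/MS tracked both dosed prodrug and expected drug PEA over 60 min (0, 10, 20, 30, 60 min samples) at 37 °C. Incubations held 1 μM test article in intestinal S9, cofactor-initiated after warm-up, stopped with ice-cold acidified acetonitrile.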
# in vitro [2] = conditions: both, human; for Concentration (μM) of analyte PEA, 0 min / Concentration (μM) of analyte PEA, 10 min / Concentration (μM) of analyte PEA, 20 min / Concentration (μM) of analyte PEA, 30 min / Concentration (μM) of analyte PEA, 60 min / % Remaining of Initial (n = 1), 0 min / % Remaining of Initial (n = 1), 10 min / % Remaining of Initial (n = 1), 20 min / % Remaining of Initial (n = 1), 30 min / % Remaining of Initial (n = 1), 60 min: 1 μM; for % Remaining of Initial (n = 1), 0 min: s9, 0 h; for % Remaining of Initial (n = 1), 10 min: s9, 10 min; for % Remaining of Initial (n = 1), 20 min: s9, 20 min; for % Remaining of Initial (n = 1), 30 min: s9, 0.5 h; for % Remaining of Initial (n = 1), 60 min: s9, 1 h
# In short: as §1
# in vitro [3] = conditions: male, CD-1, mouse; for Concentration (μM) of analyte PEA, 0 min / Concentration (μM) of analyte PEA, 10 min / Concentration (μM) of analyte PEA, 20 min / Concentration (μM) of analyte PEA, 30 min / Concentration (μM) of analyte PEA, 60 min / % Remaining of Initial (n = 1), 0 min / % Remaining of Initial (n = 1), 10 min / % Remaining of Initial (n = 1), 20 min / % Remaining of Initial (n = 1), 30 min / % Remaining of Initial (n = 1), 60 min: 1 μM; for % Remaining of Initial (n = 1), 0 min: s9, 0 h; for % Remaining of Initial (n = 1), 10 min: s9, 10 min; for % Remaining of Initial (n = 1), 20 min: s9, 20 min; for % Remaining of Initial (n = 1), 30 min: s9, 0.5 h; for % Remaining of Initial (n = 1), 60 min: s9, 1 h; for microsomal CLint at 1 μM: s9, CLint (mL/min/mg protein); for half-life at 1 μM: s9, Half-life (min)
# In short: (§2)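 Half-lives are based on fitting compound loss over 0, 10, 20, 30 and 60 min to a single exponential, with amounts expressed against the zero-time sample. Reactions hold 1 μM substrate in S9 at 37 °C, start on cofactor addition, and are stopped with cold acetonitrile containing formic acid.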
# in vitro [4] = conditions: male, Beagle, dog; for Concentration (μM) of analyte PEA, 0 min / Concentration (μM) of analyte PEA, 10 min / Concentration (μM) of analyte PEA, 20 min / Concentration (μM) of analyte PEA, 30 min / Concentration (μM) of analyte PEA, 60 min / % Remaining of Initial (n = 1), 0 min / % Remaining of Initial (n = 1), 10 min / % Remaining of Initial (n = 1), 20 min / % Remaining of Initial (n = 1), 30 min / % Remaining of Initial (n = 1), 60 min: 1 μM; for % Remaining of Initial (n = 1), 0 min: s9, 0 h; for % Remaining of Initial (n = 1), 10 min: s9, 10 min; for % Remaining of Initial (n = 1), 20 min: s9, 20 min; for % Remaining of Initial (n = 1), 30 min: s9, 0.5 h; for % Remaining of Initial (n = 1), 60 min: s9, 1 h
# In short: as §2
smiles,measurement,setting,value
CCCCCCCCCCCCCCCC(=O)NCCOC(=O)CCC [Compound I-2],"Concentration (μM) of analyte PEA, 0 min",in vitro [1],0.69 µM
same,"Concentration (μM) of analyte PEA, 10 min",in vitro [1],0.63 µM
same,"Concentration (μM) of analyte PEA, 20 min",in vitro [1],0.60 µM
same,"Concentration (μM) of analyte PEA, 30 min",in vitro [1],0.52 µM
same,"Concentration (μM) of analyte PEA, 60 min",in vitro [1],0.52 µM
same,"% Remaining of Initial (n = 1), 0 min",in vitro [1],100%
same,"% Remaining of Initial (n = 1), 10 min",in vitro [1],35%
same,"% Remaining of Initial (n = 1), 20 min",in vitro [1],<1.0%
same,"% Remaining of Initial (n = 1), 30 min",in vitro [1],<1.0%
same,"% Remaining of Initial (n = 1), 60 min",in vitro [1],<1.0%
same,microsomal CLint at 1 μM,in vitro [1],123 µL/min/mg
same,half-life at 1 μM,in vitro [1],5.6 min
same,"Concentration (μM) of analyte PEA, 0 min",in vitro [2],0.011 µM
same,"Concentration (μM) of analyte PEA, 10 min",in vitro [2],0.057 µM
same,"Concentration (μM) of analyte PEA, 20 min",in vitro [2],0.075 µM
same,"Concentration (μM) of analyte PEA, 30 min",in vitro [2],0.067 µM
same,"Concentration (μM) of analyte PEA, 60 min",in vitro [2],0.11 µM
same,"% Remaining of Initial (n = 1), 0 min",in vitro [2],100%
same,"% Remaining of Initial (n = 1), 10 min",in vitro [2],73%
same,"% Remaining of Initial (n = 1), 20 min",in vitro [2],41%
same,"% Remaining of Initial (n = 1), 30 min",in vitro [2],28%
same,"% Remaining of Initial (n = 1), 60 min",in vitro [2],9.6%
same,"Concentration (μM) of analyte PEA, 0 min",in vitro [3],0.52 µM
same,"Concentration (μM) of analyte PEA, 10 min",in vitro [3],0.50 µM
same,"Concentration (μM) of analyte PEA, 20 min",in vitro [3],0.52 µM
same,"Concentration (μM) of analyte PEA, 30 min",in vitro [3],0.45 µM
same,"Concentration (μM) of analyte PEA, 60 min",in vitro [3],0.45 µM
same,"% Remaining of Initial (n = 1), 0 min",in vitro [3],100%
same,"% Remaining of Initial (n = 1), 10 min",in vitro [3],<1.0%
same,"% Remaining of Initial (n = 1), 20 min",in vitro [3],<1.0%
same,"% Remaining of Initial (n = 1), 30 min",in vitro [3],<1.0%
same,"% Remaining of Initial (n = 1), 60 min",in vitro [3],<1.0%
same,microsomal CLint at 1 μM,in vitro [3],> 691 µL/min/mg
same,half-life at 1 μM,in vitro [3],< 1 min
same,"Concentration (μM) of analyte PEA, 0 min",in vitro [4],0.11 µM
same,"Concentration (μM) of analyte PEA, 10 min",in vitro [4],0.40 µM
same,"Concentration (μM) of analyte PEA, 20 min",in vitro [4],0.50 µM
same,"Concentration (μM) of analyte PEA, 30 min",in vitro [4],0.53 µM
same,"Concentration (μM) of analyte PEA, 60 min",in vitro [4],0.54 µM
same,"% Remaining of Initial (n = 1), 0 min",in vitro [4],100%
same,"% Remaining of Initial (n = 1), 10 min",in vitro [4],36%
same,"% Remaining of Initial (n = 1), 20 min",in vitro [4],12%
same,"% Remaining of Initial (n = 1), 30 min",in vitro [4],4.2%
same,"% Remaining of Initial (n = 1), 60 min",in vitro [4],<1.0%
"CCCCCCCCCCCCCCCC(=O)NCCOC(=O)CCC(=O)OCC(COC(=O)CCCCCCC)OC(=O)CCCCCCC (centres unmarked) [Compound I-3, PEA-Succinate-Glycerol-Di-Caprylic]","Concentration (μM) of analyte PEA, 0 min",in vitro [1],0 µM
same,"Concentration (μM) of analyte PEA, 10 min",in vitro [1],0.024 µM
same,"Concentration (μM) of analyte PEA, 20 min",in vitro [1],0.037 µM
same,"Concentration (μM) of analyte PEA, 30 min",in vitro [1],0.047 µM
same,"Concentration (μM) of analyte PEA, 60 min",in vitro [1],0.073 µM
same,"% Remaining of Initial (n = 1), 0 min",in vitro [1],100%
same,"% Remaining of Initial (n = 1), 10 min",in vitro [1],53%
same,"% Remaining of Initial (n = 1), 20 min",in vitro [1],46%
same,"% Remaining of Initial (n = 1), 30 min",in vitro [1],42%
same,"% Remaining of Initial (n = 1), 60 min",in vitro [1],31%
same,microsomal CLint at 1 μM,in vitro [1],26.8 µL/min/mg
same,half-life at 1 μM,in vitro [1],26 min
same,"Concentration (μM) of analyte PEA, 0 min",in vitro [2],0 µM
same,"Concentration (μM) of analyte PEA, 10 min",in vitro [2],0.0027 µM
same,"Concentration (μM) of analyte PEA, 20 min",in vitro [2],0.025 µM
same,"Concentration (μM) of analyte PEA, 30 min",in vitro [2],0.034 µM
same,"Concentration (μM) of analyte PEA, 60 min",in vitro [2],0.048 µM
same,"% Remaining of Initial (n = 1), 0 min",in vitro [2],100%
same,"% Remaining of Initial (n = 1), 10 min",in vitro [2],76%
same,"% Remaining of Initial (n = 1), 20 min",in vitro [2],86%
same,"% Remaining of Initial (n = 1), 30 min",in vitro [2],83%
same,"% Remaining of Initial (n = 1), 60 min",in vitro [2],60%
same,microsomal CLint at 1 μM,"in vitro [2]; s9, CLint (mL/min/mg protein)",< 11.6 µL/min/mg
same,half-life at 1 μM,"in vitro [2]; s9, Half-life (min)",> 60 min
same,"Concentration (μM) of analyte PEA, 0 min",in vitro [3],0 µM
same,"Concentration (μM) of analyte PEA, 10 min",in vitro [3],0.026 µM
same,"Concentration (μM) of analyte PEA, 20 min",in vitro [3],0.024 µM
same,"Concentration (μM) of analyte PEA, 30 min",in vitro [3],0.026 µM
same,"Concentration (μM) of analyte PEA, 60 min",in vitro [3],0.043 µM
same,"% Remaining of Initial (n = 1), 0 min",in vitro [3],100%
same,"% Remaining of Initial (n = 1), 10 min",in vitro [3],68%
same,"% Remaining of Initial (n = 1), 20 min",in vitro [3],59%
same,"% Remaining of Initial (n = 1), 30 min",in vitro [3],49%
same,"% Remaining of Initial (n = 1), 60 min",in vitro [3],33%
same,microsomal CLint at 1 μM,in vitro [3],21.1 µL/min/mg
same,half-life at 1 μM,in vitro [3],33 min
same,"Concentration (μM) of analyte PEA, 0 min",in vitro [4],0.015 µM
same,"Concentration (μM) of analyte PEA, 10 min",in vitro [4],0.23 µM
same,"Concentration (μM) of analyte PEA, 20 min",in vitro [4],0.28 µM
same,"Concentration (μM) of analyte PEA, 30 min",in vitro [4],0.29 µM
same,"Concentration (μM) of analyte PEA, 60 min",in vitro [4],0.50 µM
same,"% Remaining of Initial (n = 1), 0 min",in vitro [4],100%
same,"% Remaining of Initial (n = 1), 10 min",in vitro [4],46%
same,"% Remaining of Initial (n = 1), 20 min",in vitro [4],46%
same,"% Remaining of Initial (n = 1), 30 min",in vitro [4],34%
same,"% Remaining of Initial (n = 1), 60 min",in vitro [4],18%
same,microsomal CLint at 1 μM,"in vitro [4]; s9, CLint (mL/min/mg protein)",36.8 µL/min/mg
same,half-life at 1 μM,"in vitro [4]; s9, Half-life (min)",19 min
